Literature values, collected in article PMC2643498 (The Journal of Biological Chemistry, 2009).

Assays:
AtNCED3 = conditions: 100 μM
AtCCD1 = conditions: 100 μM
recombinant NCED = conditions: read-out: Ki (NCED)

In the case of abamineSG, the “inhibition of AtNCED3” value (AtNCED3) is listed as 78%, the “inhibition of AtCCD1” value (AtCCD1) is listed as no more than 20% and the Ki (recombinant NCED) is listed as 18.5 µM.
